Measurements reported in patent US8361998B2, “Compounds and their use as IKACh blockers” (AstraZeneca AB, priority 2010, dated 2013).

Molecular target: T1, human cardiac ion channel proteins hKir3.1/Kir3.4 (Homo sapiens, UniProt P48544+P48549)
T1 construct: expressed in transfected cells
T1 sequence (P48549 1-501): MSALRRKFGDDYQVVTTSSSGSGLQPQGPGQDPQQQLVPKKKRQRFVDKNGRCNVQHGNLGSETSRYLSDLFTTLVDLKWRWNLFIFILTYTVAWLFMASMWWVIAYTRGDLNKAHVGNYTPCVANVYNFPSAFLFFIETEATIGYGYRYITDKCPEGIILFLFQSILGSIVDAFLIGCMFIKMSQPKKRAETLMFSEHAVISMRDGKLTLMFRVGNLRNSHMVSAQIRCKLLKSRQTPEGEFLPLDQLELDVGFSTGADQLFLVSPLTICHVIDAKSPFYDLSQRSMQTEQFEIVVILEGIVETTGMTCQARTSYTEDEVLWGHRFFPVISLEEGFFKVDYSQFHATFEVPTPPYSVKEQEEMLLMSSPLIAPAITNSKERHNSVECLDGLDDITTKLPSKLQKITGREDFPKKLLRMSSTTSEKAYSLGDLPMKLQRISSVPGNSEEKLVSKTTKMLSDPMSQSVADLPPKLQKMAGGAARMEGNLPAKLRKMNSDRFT
T1 sequence (P48544 1-419): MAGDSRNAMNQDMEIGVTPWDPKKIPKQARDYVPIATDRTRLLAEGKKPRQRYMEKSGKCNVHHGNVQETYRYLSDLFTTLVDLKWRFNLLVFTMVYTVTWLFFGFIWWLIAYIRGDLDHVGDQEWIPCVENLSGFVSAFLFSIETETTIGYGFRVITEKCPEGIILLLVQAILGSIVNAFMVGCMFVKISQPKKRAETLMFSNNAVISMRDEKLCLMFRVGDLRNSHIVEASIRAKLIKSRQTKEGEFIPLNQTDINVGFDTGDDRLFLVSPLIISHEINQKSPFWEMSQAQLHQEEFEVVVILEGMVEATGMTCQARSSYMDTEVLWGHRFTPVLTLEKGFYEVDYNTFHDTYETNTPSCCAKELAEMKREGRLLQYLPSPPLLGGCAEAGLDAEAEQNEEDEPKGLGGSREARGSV
Assay: Atomic Absorption Screening (AAS) Rb efflux assay of hKir3.1/Kir3.4 block, carbachol/high K+ stimulated, 10-pt or 7-pt CR
Assay type: cell-based
Conditions: 10-pt CR (0.003 to 67 μmol/L), AAS Rb efflux, CHO-K1 cells expressing hKir3.1/Kir3.4; mean of >4 replicates; read-out: IKACh IC50 10-pt CR, AAS
How it was run: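 CHO-K1 cells stably co-expressing human Kir3.1/Kir3.4 were Rb-loaded for 3 h at 37° C, preincubated with compound 5 min at RT, then stimulated 10 min with 10 μM carbachol plus 20 mM KCl (final). Supernatant Rb was measured by atomic absorption. Compounds ran at 0.003–67 μmol/L (10-pt) or 0.037–27 μmol/L (7-pt), threefold dilutions; IC50s are means of >4 or >3 replicates respectively.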

Row | Compound | IC50
1 | COC1CCN(C[C@H](C(C)C)N(C)C(=O)c2ccc(Cl)cc2)CC1 [Example 3.7, (S)-4-Chloro-N-(1-(4-methoxypiperidin-1-yl)-3-methylbutan-2-yl)-N-methylbenzamide] | 1.3 µM
2 | COC1CCN(C[C@H](C(C)C)N(C)C(=O)c2ccc(F)c(C)c2)CC1 [Example 3.8, (S)-4-Fluoro-N-(1-(4-methoxypiperidin-1-yl)-3-methylbutan-2-yl)-N,3-dimethylbenzamide] | 4.8 µM
3 | COC1CCN(C[C@H](C(C)C)N(C)C(=O)c2ccc(F)c(Cl)c2)CC1 [Example 3.9, (S)-3-Chloro-4-fluoro-N-(1-(4-methoxypiperidin-1-yl)-3-methylbutan-2-yl)-N-methylbenzamide] | 3 µM
4 | COC1CCN(C[C@H](C(C)C)N(C)C(=O)c2cccc(C)c2)CC1 [Example 3.10, (S)-N-(1-(4-Methoxypiperidin-1-yl)-3-methylbutan-2-yl)-N,3-dimethylbenzamide] | 14 µM
5 | COc1cc(C(=O)N(C)[C@H](CN2CCC(OC)CC2)C(C)C)ccc1C [Example 3.11, (S)-3-Methoxy-N-(1-(4-methoxypiperidin-1-yl)-3-methylbutan-2-yl)-N,4-dimethylbenzamide] | 7.2 µM
6 | COC1CCN(C[C@H](C(C)C)N(C)C(=O)c2ccc(C)c(C)c2)CC1 [Example 3.12, (S)-N-(1-(4-Methoxypiperidin-1-yl)-3-methylbutan-2-yl)-N,3,4-trimethylbenzamide] | 2.5 µM
7 | Cc1cc(C(=O)N(C)[C@H](CN2CCCC2)C2CC2)ccc1F [Example 3.13, (S)-N-(1-Cyclopropyl-2-(pyrrolidin-1-yl)ethyl)-4-fluoro-N,3-di-methylbenzamide] | 3.6 µM
8 | CN(C(=O)c1ccc(Cl)cc1)[C@H](CN1CCCC1)C1CC1 [Example 3.14, (S)-4-Chloro-N-(1-cyclopropyl-2-(pyrrolidin-1-yl)ethyl)-N-methylbenzamide] | 5.7 µM
9 | CN(C(=O)c1ccc(Br)cc1)[C@H](CN1CCCC1)C1CC1 [Example 3.15, (S)-4-Bromo-N-(1-cyclopropyl-2-(pyrrolidin-1-yl)ethyl)-N-methylbenzamide] | 3.8 µM
10 | CN(C(=O)c1ccc(F)c(F)c1)[C@H](CN1CCCC1)C1CC1 [Example 3.16, (S)-N-(1-Cyclopropyl-2-(pyrrolidin-1-yl)ethyl)-3,4-difluoro-N-methylbenzamide] | 13 µM
11 | Cc1cccc(C(=O)N(C)[C@H](CN2CCCC2)C2CC2)c1 [Example 3.17, (S)-N-(1-Cyclopropyl-2-(pyrrolidin-1-yl)ethyl)-N,3-dimethyl-benzamide] | 9.3 µM
12 | COC[C@@H]1CCCN1C[C@H](C(C)C)N(C)C(=O)c1ccc(OC)cc1 [Example 3.18, 4-Methoxy-N-((S)-1-((S)-2-(methoxymethyl)pyrrolidin-1-yl)-3-methylbutan-2-yl)-N-methylbenzamide] | 1.9 µM
13 | COC[C@@H]1CCCN1C[C@H](C(C)C)N(C)C(=O)c1ccc(Cl)cc1 [Example 3.19, 4-Chloro-N-((S)-1-((S)-2-(methoxymethyl)pyrrolidin-1-yl)-3-methylbutan-2-yl)-N-methylbenzamide] | 6 µM
14 | COC[C@@H]1CCCN1C[C@H](C(C)C)N(C)C(=O)c1ccc(Br)cc1 [Example 3.20, 4-Bromo-N-((S)-1-((S)-2-(methoxymethyl)pyrrolidin-1-yl)-3-methylbutan-2-yl)-N-methylbenzamide] | 8.4 µM
15 | CN(C(=O)c1ccc(Cl)cc1)[C@H](CN1CCC1)C1CC1 [Example 4.2, (S)-N-(2-(Azetidin-1-yl)-1-cyclopropylethyl)-4-chloro-N-methylbenzamide] | 2.8 µM
16 | CN(C(=O)c1ccc(Br)cc1)[C@H](CN1CCC1)C1CC1 [Example 4.3, (S)-N-(2-(Azetidin-1-yl)-1-cyclopropylethyl)-4-bromo-N-methylbenzamide] | 6.8 µM
17 | CC(C)[C@@H](CN1CC(O)C1)N(C)C(=O)c1ccc(Br)cc1 [Example 6.3, (S)-4-Bromo-N-(1-(3-hydroxyazetidin-1-yl)-3-methylbutan-2-yl)-N-methylbenzamide] | 2.5 µM

Row | Compound | IC50
18 | CN(C(=O)c1ccc(F)cc1)[C@H](CN1CC(O)C1)C1CC1 [Example 7.4, (S)-N-(1-Cyclopropyl-2-(3-hydroxyazetidin-1-yl)ethyl)-4-fluoro-N-methylbenzamide] | 9.8 µM
19 | CN(C(=O)c1ccc(F)c(C(F)(F)F)c1)[C@H](CN1CC(O)C1)C1CC1 [Example 7.5, (S)-N-(1-Cyclopropyl-2-(3-hydroxyazetidin-1-yl)ethyl)-4-fluoro-N-methyl-3-(trifluoromethyl)benzamide] | 1.8 µM
20 | CCC[C@@H](CN1CC(O)C1)N(C)C(=O)c1ccc(F)c(Cl)c1 [Example 8.3, (S)-3-Chloro-4-fluoro-N-(1-(3-hydroxyazetidin-1-yl)pentan-2-yl)-N-methylbenzamide] | 0.8 µM
21 | CCC[C@@H](CN1CC(O)C1)N(C)C(=O)c1ccc(Cl)c(C)c1 [Example 8.4, (S)-4-Chloro-N-(1-(3-hydroxyazetidin-1-yl)pentan-2-yl)-N,3-di-methylbenzamide] | 0.2 µM
22 | CCC[C@@H](CN1CC(O)C1)N(C)C(=O)c1ccc(F)c(C(F)(F)F)c1 [Example 8.5, (S)-4-Fluoro-N-(1-(3-hydroxyazetidin-1-yl)pentan-2-yl)-N-methyl-3-(trifluoromethyl)benzamide] | 0.58 µM
23 | CCC[C@@H](CN1CC(O)C1)N(C)C(=O)c1ccc(Br)cc1 [Example 8.7, (S)-4-Bromo-N-(1-(3-hydroxyazetidin-1-yl)pentan-2-yl)-N-methylbenzamide] | 1.7 µM
24 | CCC[C@@H](CN1CC(O)C1)N(C)C(=O)c1cccc(C(F)(F)F)c1 [Example 8.8, (S)-N-(1-(3-Hydroxyazetidin-1-yl)pentan-2-yl)-N-methyl-3-(tri-fluoromethyl)benzamide] | 2.4 µM
25 | CCC[C@@H](CN1CC(O)C1)N(C)C(=O)c1ccc(C#N)cc1 [Example 8.9, (S)-4-Cyano-N-(1-(3-hydroxyazetidin-1-yl)pentan-2-yl)-N-methylbenzamide] | 8.6 µM
26 | CCC[C@@H](CN1CC(O)C1)N(C)C(=O)c1cccc(C)c1 [Example 8.10, (S)-N-(1-(3-Hydroxyazetidin-1-yl)pentan-2-yl)-N,3-dimethyl-benzamide] | 4.3 µM
27 | CCC[C@@H](CN1CC(O)C1)N(C)C(=O)c1ccc(F)c(C)c1 [Example 8.11, (S)-4-Fluoro-N-(1-(3-hydroxyazetidin-1-yl)pentan-2-yl)-N,3-di-methylbenzamide] | 0.84 µM
28 | Cc1cc(C(=O)N(C)[C@H](CN2C[C@H](O)[C@@H](O)C2)C(C)C)ccc1F [Example 8.12, N-((S)-1-((3S,4S)-3,4-Dihydroxypyrrolidin-1-yl)-3-methylbutan-2-yl)-4-fluoro-N,3-dimethylbenzamide] | 4.3 µM
29 | Cc1cc(C(=O)N(C)[C@H](CN2C[C@H](O)[C@@H](O)C2)C(C)C)ccc1Cl [Example 8.13, 4-Chloro-N-((S)-1-((3S,4S)-3,4-dihydroxypyrrolidin-1-yl)-3-methylbutan-2-yl)-N,3-dimethylbenzamide] | 1.9 µM
30 | CC(C)[C@@H](CN1C[C@H](O)[C@@H](O)C1)N(C)C(=O)c1ccc(Cl)cc1 [Example 8.14, 4-Chloro-N-((S)-1-((3S,4S)-3,4-dihydroxypyrrolidin-1-yl)-3-methylbutan-2-yl)-N-methylbenzamide] | 5.8 µM
31 | CC(C)[C@@H](CN1C[C@H](O)[C@@H](O)C1)N(C)C(=O)c1ccc(Cl)c(F)c1 [Example 8.15, 4-Chloro-N-((S)-1-((3S,4S)-3,4-dihydroxypyrrolidin-1-yl)-3-methylbutan-2-yl)-3-fluoro-N-methylbenzamide] | 4.5 µM
32 | Cc1cc(C(=O)N(C)[C@H](CN2C[C@@H](O)[C@H](O)C2)C(C)C)ccc1Cl [Example 8.16, 4-Chloro-N-((S)-1-((3R,4R)-3,4-dihydroxypyrrolidin-1-yl)-3-methylbutan-2-yl)-N,3-dimethylbenzamide] | 16 µM
33 | CC[C@@H](CN1CC(O)C1)N(C)C(=O)c1ccc(F)c(C)c1 [Example 8.17, (S)-4-Fluoro-N-(1-(3-hydroxyazetidin-1-yl)butan-2-yl)-N,3-dimethylbenzamide] | 2 µM
34 | Cc1cc(C(=O)N(C)[C@H](CN2CC(O)(C3CC3)C2)C2CC2)ccc1F [Example 9.1, (S)—N-(1-Cyclopropyl-2-(3-cyclopropyl-3-hydroxyazetidin-1-yl)ethyl)-4-fluoro-N,3-dimethylbenzamide] | 2.6 µM
